According to paper PMC6993142 (Journal of natural products, 2017):

How the values were obtained:
[1] = MTS dye cytotoxicity assay, normal HFF cells; type: cell-based; conditions: human, HFF cells (normal foreskin fibroblasts)
[2] = MTS dye cytotoxicity assay, whole panel; type: cell-based; conditions: human
[3] = tested on: LNCaP (androgen-sensitive human prostate adenocarcinoma); experiment: MTS dye cytotoxicity assay, LNCaP; type: cell-based; conditions: for IC50: Homo sapiens, LNCaP, 72 h, read-out: Cytotoxicity IC50, LNCaP, LNCaP, 72 h, MTS
[4] = tested on: MCF-7, MDA-MB-231, H1299, Ca9–22 and HT-29 cells; conditions: MCF-7, MDA-MB-231, H1299, Ca9–22, HT-29; ref 11j, 11h, 11k, 11n; cited from earlier work
[5] = tested on: A549, Hep G2, Hep 3B, MCF-7 and MDA-MB-231 cell lines; conditions: MCF-7, MDA-MB-231, ref 11f; cited from earlier work
[6] = tested on: ACHN (human renal adenocarcinoma); experiment: MTS dye cytotoxicity assay, ACHN; type: cell-based; conditions: of the 26 withanolides tested
[7] = tested on: RC cells (ACHN, Caki-1, and SN-12-C); conditions: in the presence of TRAIL; cited from earlier work
[8] = tested on: LNCaP (androgen-sensitive human prostate adenocarcinoma); conditions: previously shown; cited from earlier work

SMILES | IC50 at 72 h [1] | IC50 at 72 h [2] | also measured
CC1=C(C)[C@H](O)[C@H]([C@](C)(O)[C@]2(O)CC[C@@]3(O)[C@@H]4C[C@H]5O[C@]56CC=CC(=O)[C@]6(C)[C@H]4CC[C@]23C)OC1=O [Compound 6, (20S,22R)-5β,6β-epoxy-14α,17β,20,23β-tetrahydroxy-1-oxowitha-2,24-dienolide] | > 2000 nM |  | 
CC1=C(C)C(=O)O[C@@H]([C@](C)(O)C2=CC[C@@]3(O)[C@@H]4C[C@H]5O[C@]56CC=CC(=O)[C@]6(C)[C@H]4CC[C@]23C)C1 [Compound 7, (20S,22R)-5β,6β-epoxy-14α,20-dihydroxy-1-oxowitha-2,16,24-trienolide] |  | > 5000 nM | 
CC1=C(C)C(=O)O[C@@H]([C@](C)(O)[C@]2(O)CC[C@@]3(O)[C@@H]4[C@@H](O)C=C5CC=CC(=O)[C@]5(C)[C@H]4CC[C@]23C)C1 [Compound 8, (20S,22R)-7β,14α,17β,20-tetrahydroxy-1-oxowitha-2,5,24-trienolide] | > 2000 nM |  | IC50 [3]: < 2000 nM
CC1=C(C)C(=O)O[C@@H]([C@](C)(O)[C@]2(O)CC[C@@]3(O)[C@@H]4[C@@H](O)C=C5C=CCC(=O)[C@]5(C)[C@H]4CC[C@]23C)C1 [Compound 9, (20S,22R)-7β,14α,17β,20-tetrahydroxy-1-oxowitha-3,5,24-trienolide] | > 2000 nM |  | IC50 [3]: < 2000 nM
C[C@H]1C(=O)O[C@@H]([C@](C)(O)[C@H]2CC[C@@]3(O)[C@@H]4CC=C5CC=CC(=O)[C@]5(C)[C@H]4CC[C@]23C)[C@@H](O)[C@@H]1CO [Compound 10, (20S,22R)-14α,20,23β,28-tetrahydroxy-1-oxowitha-2,5-dienolide] |  | > 5000 nM | 
C[C@H]1C[C@H]([C@](C)(O)[C@]2(O)CC[C@@]3(O)[C@@H]4C[C@H]5O[C@]56CC=CC(=O)[C@]6(C)[C@H]4CC[C@]23C)OC(=O)[C@@H]1C [Compound 11, (20S,22R,24S,25R)-5β,6β-epoxy-14α,17β,20-trihydroxy-1-oxowitha-2-enolide] | > 2000 nM |  | 
CC1=C(C)C(=O)O[C@@H]([C@](C)(O)[C@]2(O)CC[C@@]3(O)[C@@H]4C[C@H]5O[C@]56[C@@H](O)C=CC(=O)[C@]6(C)[C@H]4CC[C@]23C)C1 [Compound 12, 4β-hydroxywithanolide E] | > 2000 nM |  | Inhibition of proliferation [4]: inhibit proliferation; Cytotoxic to cancer cell lines [5]: cytotoxic
CC1=C(C)C(=O)O[C@@H]([C@](C)(O)[C@]2(O)CC[C@@]3(O)[C@@H]4C[C@H]5O[C@]56CC=CC(=O)[C@]6(C)[C@H]4CC[C@]23C)C1 [Compound 13, withanolide E] | > 2000 nM |  | Selectivity for renal carcinoma (ACHN) cells [6]: showed selectivity; Cytotoxic to cancer cell lines [5]: cytotoxic; Long-term survival of RC cells [7]: eliminate long-term survival
CC1=C(C)C(=O)O[C@@H]([C@](C)(O)C2=CC[C@@]3(O)[C@@H]4C[C@H]5O[C@]56[C@@H](O)C=CC(=O)[C@]6(C)[C@H]4CC[C@]23C)C1 [Compound 14, phyperunolide A] |  | > 5000 nM | Cytotoxic to cancer cell lines [5]: cytotoxic
CO[C@H]1C=CC(=O)[C@]2(C)[C@H]3CC[C@]4(C)[C@](O)([C@@](C)(O)[C@H]5CC(C)=C(C)C(=O)O5)CC[C@@]4(O)[C@@H]3C[C@H]3O[C@]132 [Compound 15, withangulatin E] | > 2000 nM |  | IC50 [3]: < 2000 nM
CO[C@]12CC=CC(=O)[C@]1(C)[C@H]1CC[C@]3(C)[C@](O)([C@@](C)(O)[C@H]4CC(C)=C(C)C(=O)O4)CC[C@@]3(O)[C@@H]1C[C@H]2O [Compound 16, withanolide S 5-methyl ether] |  | > 5000 nM | 
CC1=C(C)C(=O)O[C@@H]([C@](C)(O)[C@]2(O)CC[C@@]3(O)[C@@H]4C[C@H](Cl)[C@]5(O)[C@@H](O)C=CC(=O)[C@]5(C)[C@H]4CC[C@]23C)C1 [Compound 17, physalolactone] |  | > 5000 nM | 
CC1=C(C)C(=O)O[C@@H]([C@](C)(O)[C@]2(O)CC[C@@]3(O)[C@@H]4C[C@@H](O)[C@@]5(O)CC=CC(=O)[C@]5(C)[C@H]4CC[C@]23C)C1 [Compound 18, withanolide S] |  | > 5000 nM | 
CC1=C(C)C(=O)O[C@@H]([C@](C)(O)[C@]2(O)CC[C@@]3(O)[C@@H]4[C@@H](O)[C@H]5O[C@]56CC=CC(=O)[C@]6(C)[C@H]4CC[C@]23C)C1 [Compound 19, withaperuvin L] | > 2000 nM |  | 
CC1=C(C)C(=O)O[C@@H]([C@](C)(O)[C@]2(O)CC[C@@]3(O)[C@@H]4CC=C5[C@@H](O)C=CC(=O)[C@]5(C)[C@H]4CC[C@]23C)C1 [Compound 20, physapruin A] | > 2000 nM |  | Selectivity for renal carcinoma (ACHN) cells [6]: showed selectivity
CC1=C(CO)C[C@H]([C@](C)(O)[C@]2(O)CC[C@@]3(O)[C@@H]4CC=C5CC=CC(=O)[C@]5(C)[C@H]4CC[C@]23C)OC1=O [Compound 21, withaperuvin J] | > 2000 nM |  | 
CC1=C(C)C(=O)O[C@@H]([C@](C)(O)[C@]2(O)CC[C@@]3(O)[C@@H]4CC=C5CC=CC(=O)[C@]5(C)[C@H]4CC[C@]23C)C1 [Compound 22, withanolide F] | > 2000 nM |  | 
CC1=C(C)C(=O)O[C@@H]([C@](C)(O)[C@]2(O)CC[C@@]3(O)[C@@H]4C[C@H](Cl)[C@]5(O)CC=CC(=O)[C@]5(C)[C@H]4CC[C@]23C)C1 [Compound 23, 4-deoxyphysalolactone] |  | > 5000 nM | 
C[C@H]1C(=O)OC[C@H]1C[C@@H](O)[C@](C)(O)[C@]1(O)CC[C@@]2(O)[C@@H]3CC=C4CC=CC(=O)[C@]4(C)[C@H]3CC[C@]12C [Compound 24, perulactone B] |  | > 5000 nM | 
C[C@H]1C(=O)OC[C@H]1C[C@@H](O)[C@](C)(O)[C@@]1(O)CC[C@@]2(O)[C@@H]3CC=C4CC=CC(=O)[C@]4(C)[C@H]3CC[C@]12C [Compound 25, perulactone H] |  | > 5000 nM | 
CC(=O)OC[C@]12CC[C@H]3[C@@H](C[C@H]4O[C@]45CC=CC(=O)[C@]35C)[C@]1(O)CC[C@@]2(O)[C@@](C)(O)[C@H]1CC(C)=C(C)C(=O)O1 [Compound 26, Physachenolide C, reference compound] | > 2000 nM |  | Activity for LNCaP cells [8]: selective and potent activity; Enhancement of activity (26 vs 13) ([3]; LNCaP cells, acetoxylation at C-18): 3 fold; Selectivity for renal carcinoma (ACHN) cells [6]: showed selectivity
CC1=C(C)C(=O)O[C@@H]([C@](C)(O)[C@]2(O)CC[C@@]3(O)[C@@H]4C[C@@H](O)[C@@]5(Cl)CC=CC(=O)[C@]5(C)[C@H]4CC[C@]23C)C1 [Compound 27, withanolide C, reference compound] |  |  | Cytotoxic to cancer cell lines [5]: cytotoxic
